# Experimental data reported in paper PMC6385123, “Design, Synthesis, Anticancer Evaluation and Molecular Modeling of Novel Estrogen Derivatives” (Molecules, 2019).
# Columns and labels:
# [1] = molecular target: T1, p53 ubiquitination (GST-tagged HDM2) (Homo sapiens, UniProt Q00987); test: In vitro p53 ubiquitination assay; format: biochemical
# T1 construct: GS4b-MDM2 RING beads were prepared as above and were used in place of the full-length MDM2; made in house; host or cells: Escherichia coli BL21
# Experimental: Different prepared derivatives were evaluated for their inhibitory potential against p53 ubiquitination. The method is based on incubating different compounds with GST-tagged HDM2, immobilized on glutathione-Sepharose, p53, ubiquitin, E1 and E2 (UbcH5B) ligases. The buffer contained ATP as detailed by Gomha and Abdelaziz. The reaction products were then resolved by SDSPAGE and p53 ubiquitination and were quantified by Western blotting using an anti-p53 antibody.
# Briefly, rGSH-S-transferase-tagged MDM2 (GST-MDM2) was expressed in Escherichia coli BL21 cells using 1 mM isopropyl-thio-b-D-galactoside for 3 h. The enzyme was then purified on glutathione-sepharose beads (Amersham). Beads were washed with Tris (pH 7.5). The reaction contained fluorescent ubiquitin (5 µg; Invitrogen), 50 ng mammalian E1 (Enzo), 200 ng human rUbcH5B E2 (Enzo), 200 ng His-p53 (Enzo) and buffer [50 mM Tris pH 8,2 mM dithiothreitol, 5 mM MgCl2, 2 mM adenosine triphosphate (ATP)]. The MPD-compound or control mixture was dose-titrated onto GS4b-MDM2 beads. Incubation at 37 °C was followed by shaking (1200 rpm, 1 h). The reaction was terminated with 3× sodium dodecyl sulfate sample buffer. Finally, unbound fluorescent ubiquitin was drained and the total fluorescent ubiquitin signal was measured using a plate reader (Safire).
# The procedure was performed similar to the aforementioned protocol except that 5 µg unlabeled ubiquitin (Enzo) was used. Following incubation, resolving of reaction products was performed using sodium dodecyl sulfate PGE. Analysis was done by western blotting using anti-p53 DO-1. For the MDM2 RING auto-ubiquitination assay, GS4b-MDM2 RING beads were prepared as above and were used in place of the full-length MDM2.
# MCF-10A cells = test: In vitro cytotoxicity against normal non-tumorigenic cells, MTT assay; format: cell-based; conditions: Homo sapiens, normal non-tumorigenic MCF-10A cells, read-out: IC50 (Mean ± SEM) MCF-10A
# Experimental: (§1) MCF-7 (human breast cancer) cells, obtained from Sigma-Aldrich Chemie GmbH, Taufkirchen, Germany, were propagated in RPMI-1640 supplemented with 10% heat inactivated FBS, 2 mM L-glutamine, and 1% standard antibiotic solution. Cells were incubated in a 5% CO2 humidified incubator at 37 °C and passaged bi-weekly. The in vitro anti-proliferative activity of the newly synthesized derivatives was assayed using standard MTT technique. Results were expressed as IC50. Experiments were repeated at least in triplicate, to obtain good reproducibility between replicate wells with standard errors below 10%. Furthermore, the cytotoxic effects of the prepared derivatives were evaluated against normal nonmalignant cells, non-tumorigenic MCF-10A, in order to find out if the synthesized derivatives have toxicity against normal cells. Additionally, results were compared with reference compounds (cisplatin and milaplatin) as positive controls.
# MCF-7 xenografts = test: In vivo breast cancer mouse xenograft model; design: species or system nude mice
# Experimental: The breast cancer xenograft model protocol was approved by the Institutional Animal Use and Care Committee of the University of Alabama at Birmingham (50-01-05-08B). Female athymic pathogen-free nude mice (nu/nu, 4–6 weeks) were used. Firstly, MCF-7 xenografts were initiated by implanting pellets slowly releasing estrogen for two months (1.7mg 17β-estradiol/pellet) subcutaneously in the female nude mice. After 24 h, confluent MCF-7 cells were harvested, washed two times with serum-free medium, re-suspended and injected subcutaneously (s.c.) (5 × 10^6 cells, total volume 0.2 mL) into the left inguinal area of the mice. Caliper measurement was used to measure tumor growth in two perpendicular diameters of the implant after 48 h, and its volume was determined. Mice grafted with MCF-7 were divided into different groups (7–10 mice/group). Untreated mice received the solvent only. Treated groups received different prepared derivatives as previously described.
# EGFR = EGFR (Homo sapiens, UniProt P00533); test: EGFR kinase inhibition assay; format: biochemical; conditions: 8 μM ATP, poly(Glu,Tyr)4:1 substrate; read-out: IC50 (Mean ± SEM) EGFR
# Experimental: (§2) The EGFR and VEGFR-2 kinase activities were assayed as previously described. The assay was performed in 96-well plates pre-coated with 20 μg mL^−1 poly (Glu, Tyr)4:1 (Sigma-Aldrich Chemie GmbH, Taufkirchen, Germany) as a substrate. In each well, 85 μL of an 8 μM ATP solution and 10 μL of the compound were added at varying concentrations. Experiments were repeated three times. Reactions started with 5 μL of different kinases and incubation for 1 h at 37 °C. Plates were 3X-washed with PBS/0.1% Tween 20. Accordingly, 100 μL of anti-phosphotyrosine (PY99; 1:500 dilutions) antibody was added, and plates were incubated for another hour at room temperature. Plates were then 3X-washed, and addition of goat anti-mouse IgG horseradish peroxidase (100 μL; 1:2000 dilution) diluted in T-PBS containing 5 mg mL^−1 BSA followed. Plates were further incubated at room temperature for another hour, and then 3X-washed. Finally, 100 μL (developing solution, 0.03% H2O2, 2 mg mL^−1 o-phenylenediamine/citrate buffer, 0.1 M, pH 5.5) was added and incubation continued until color development. The reaction was stopped by 100 μL of 2M H2SO4, and the absorption was measured at 492 nm using a multiwell spectrophotometer (VERSAmax™). The inhibition rate (%) was calculated using the equation:Inhibition rate (%) = [1 − (A492/A492Control)] × 100%(1)
# p53 ubiquitination = test: In vivo ubiquitination of p53 (transfected cells); format: cell-based
# Experimental: In vivo ubiquitination of p53 was assayed according to [38] Cells were grown for 24 h (50% confluency) before transfection of 1 µg p53, 4 µg MDM2 and 1 µg HIS-ubiquitin with Gene Juice reagent. Grown for another 20 h, cells were exposed to prepared derivatives or controls for 6 h and MG132 for 4 h, then washed and collected in PBS, where 5% of the solution was kept as an input. The remaining pelleted cells (95% after centrifugation) were lysed in 700 µL of ubiquitin buffer A (6 M guanidinium HCl, 300 mM NaCl, 50 mM phosphate pH 8.0, 100 µg/mL N-ethylmaleimide), and sonicated for 5 min at 20% amplitude. Lysates were incubated overnight with Invitrogen Dynabeads His-Tag matrix and washed once with ubiquitin buffers A, B, C and phosphate buffered saline (ubiquitin buffer B: Mix ubiquitin buffer A and ubiquitin buffer C 1:1; ubiquitin buffer C: 300 mM NaCl, 50 mM phosphate pH 8.0, 100 µg/mL N-ethylmaleimide). The washed lysates were resolved by 8% sodium dodecyl sulfate–polyacrylamide gel electrophoresis, followed by immunoblotting with a p53 (DO-1) antibody.
# VEGFR-2 = VEGFR-2 (Homo sapiens, UniProt P35968); test: VEGFR-2 kinase inhibition assay; format: biochemical; conditions: 8 μM ATP, poly(Glu,Tyr)4:1 substrate; read-out: IC50 (Mean ± SEM) VEGFR-2
# Experimental: as §2
# MCF-7 cells = test: In vitro cytotoxic activity, MTT assay, MCF-7; format: cell-based, human
# Experimental: as §1
# T1 sequence (Q00987 whole entry): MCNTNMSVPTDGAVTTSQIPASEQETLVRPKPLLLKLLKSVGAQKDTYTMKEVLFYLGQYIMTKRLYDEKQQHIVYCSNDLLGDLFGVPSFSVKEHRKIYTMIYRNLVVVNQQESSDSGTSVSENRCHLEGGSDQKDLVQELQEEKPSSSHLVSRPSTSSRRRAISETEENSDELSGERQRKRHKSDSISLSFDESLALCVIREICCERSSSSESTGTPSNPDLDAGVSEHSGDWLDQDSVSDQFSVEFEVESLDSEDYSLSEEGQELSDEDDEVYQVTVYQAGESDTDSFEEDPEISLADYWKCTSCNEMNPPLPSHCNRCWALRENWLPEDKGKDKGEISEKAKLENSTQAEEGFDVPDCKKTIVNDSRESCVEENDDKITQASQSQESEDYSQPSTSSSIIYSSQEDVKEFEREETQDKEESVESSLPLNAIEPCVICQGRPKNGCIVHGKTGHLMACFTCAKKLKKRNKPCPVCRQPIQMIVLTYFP
# Chain of VEGFR-2 (P35968 20-1356): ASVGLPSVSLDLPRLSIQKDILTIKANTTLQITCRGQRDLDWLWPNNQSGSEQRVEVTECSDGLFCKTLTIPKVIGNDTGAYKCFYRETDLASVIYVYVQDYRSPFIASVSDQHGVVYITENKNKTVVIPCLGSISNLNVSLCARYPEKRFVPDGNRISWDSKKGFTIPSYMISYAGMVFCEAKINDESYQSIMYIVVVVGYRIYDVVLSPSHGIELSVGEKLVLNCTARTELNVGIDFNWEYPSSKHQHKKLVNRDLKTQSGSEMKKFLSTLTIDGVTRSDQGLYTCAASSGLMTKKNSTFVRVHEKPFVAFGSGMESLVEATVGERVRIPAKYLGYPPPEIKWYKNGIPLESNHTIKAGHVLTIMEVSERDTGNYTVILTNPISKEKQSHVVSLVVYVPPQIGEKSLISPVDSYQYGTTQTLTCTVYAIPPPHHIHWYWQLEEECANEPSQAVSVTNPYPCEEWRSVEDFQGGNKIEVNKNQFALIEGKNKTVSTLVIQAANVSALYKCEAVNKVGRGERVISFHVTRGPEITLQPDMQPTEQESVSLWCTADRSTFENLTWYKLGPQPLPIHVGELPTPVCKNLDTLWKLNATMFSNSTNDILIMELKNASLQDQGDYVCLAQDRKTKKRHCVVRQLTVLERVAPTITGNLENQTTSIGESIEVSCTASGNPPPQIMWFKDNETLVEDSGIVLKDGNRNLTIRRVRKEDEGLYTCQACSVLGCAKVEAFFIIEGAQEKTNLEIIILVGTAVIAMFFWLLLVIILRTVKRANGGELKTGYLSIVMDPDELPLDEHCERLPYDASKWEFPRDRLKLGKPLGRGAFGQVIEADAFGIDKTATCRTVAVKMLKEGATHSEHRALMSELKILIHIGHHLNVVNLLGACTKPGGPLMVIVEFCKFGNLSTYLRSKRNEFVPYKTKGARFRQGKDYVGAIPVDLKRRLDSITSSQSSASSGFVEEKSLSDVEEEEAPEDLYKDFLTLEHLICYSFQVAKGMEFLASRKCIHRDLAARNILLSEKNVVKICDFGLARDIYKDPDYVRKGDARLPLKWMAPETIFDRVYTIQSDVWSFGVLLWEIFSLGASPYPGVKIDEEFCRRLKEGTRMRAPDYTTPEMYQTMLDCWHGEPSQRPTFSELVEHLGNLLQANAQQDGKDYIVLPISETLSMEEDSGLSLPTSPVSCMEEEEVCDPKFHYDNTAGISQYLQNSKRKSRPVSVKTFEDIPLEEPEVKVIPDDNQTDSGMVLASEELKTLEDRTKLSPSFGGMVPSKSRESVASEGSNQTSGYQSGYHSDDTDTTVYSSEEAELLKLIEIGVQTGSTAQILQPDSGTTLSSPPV
# Chain of EGFR (P00533 25-1210): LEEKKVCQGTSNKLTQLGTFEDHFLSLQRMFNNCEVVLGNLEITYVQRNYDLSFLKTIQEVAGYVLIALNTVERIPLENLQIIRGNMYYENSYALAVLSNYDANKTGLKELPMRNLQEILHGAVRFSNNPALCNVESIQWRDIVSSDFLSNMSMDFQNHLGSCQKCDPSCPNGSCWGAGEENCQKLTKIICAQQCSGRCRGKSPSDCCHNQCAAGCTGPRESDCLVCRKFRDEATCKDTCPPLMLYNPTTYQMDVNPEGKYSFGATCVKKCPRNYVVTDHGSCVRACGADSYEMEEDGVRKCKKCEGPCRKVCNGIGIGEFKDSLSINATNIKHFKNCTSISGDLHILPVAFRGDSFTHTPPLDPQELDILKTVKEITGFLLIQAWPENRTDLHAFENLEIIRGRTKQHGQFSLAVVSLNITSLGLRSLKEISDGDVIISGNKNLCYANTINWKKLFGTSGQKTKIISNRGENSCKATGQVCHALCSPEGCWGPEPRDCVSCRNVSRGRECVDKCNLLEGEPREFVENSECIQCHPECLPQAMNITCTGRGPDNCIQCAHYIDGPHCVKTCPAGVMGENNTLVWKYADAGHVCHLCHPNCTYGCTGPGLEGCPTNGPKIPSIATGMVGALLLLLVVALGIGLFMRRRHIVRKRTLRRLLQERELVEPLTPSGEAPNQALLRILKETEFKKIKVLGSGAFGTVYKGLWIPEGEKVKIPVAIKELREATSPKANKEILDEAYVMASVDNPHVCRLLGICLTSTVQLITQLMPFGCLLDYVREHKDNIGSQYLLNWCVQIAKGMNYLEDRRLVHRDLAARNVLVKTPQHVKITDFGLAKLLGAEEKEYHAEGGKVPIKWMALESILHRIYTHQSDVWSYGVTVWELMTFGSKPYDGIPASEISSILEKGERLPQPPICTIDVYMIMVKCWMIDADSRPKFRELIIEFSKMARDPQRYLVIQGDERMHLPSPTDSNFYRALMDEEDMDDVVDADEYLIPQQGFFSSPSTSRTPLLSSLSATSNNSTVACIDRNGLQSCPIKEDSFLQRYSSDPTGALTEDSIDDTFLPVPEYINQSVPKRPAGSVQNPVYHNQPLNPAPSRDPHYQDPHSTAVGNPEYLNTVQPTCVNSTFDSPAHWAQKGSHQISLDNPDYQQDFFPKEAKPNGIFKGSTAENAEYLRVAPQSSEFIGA
structure (smiles),measurement,setting,value
"CC12CCC3c4ccc(O)cc4CCC3C1CC1=C2NC(=N)NC1c1ccccc1Cl (stereo not shown) [Compound 5a, 2′-Imino-6′-(2-chlorophenyl)-estra-1(10),2,4,16(17)-tetraien-[17,16-d]-pyrimidino-3-ol]",IC50,"[1]; GST-tagged HDM2, p53, ubiquitin, E1 and E2 (UbcH5B), read-out: IC50 (Mean ± SEM) In Vitro p53 Ubiquitination",16.4 ± 0.23 µM
same,"fold more active than standard drug, in vitro p53 ubiquitination",[1]; vs diphenyl imidazole,15.8 fold
same,melting point,,286 to 288 °C
same,IC50,MCF-10A cells,211 ± 7.53 µM
same,decrease in tumor growth,"MCF-7 xenografts; after 2 days of treatment, vs control animals",about 25.36%
same,maximal inhibition of tumor growth,MCF-7 xenografts; after 10 days of treatment,91.1%
same,inhibition percentage of tumor growth,MCF-7 xenografts; after 14 days of treatment,88.7%
same,IC50,EGFR,0.086 ± 0.0032 µM
same,IC50,"p53 ubiquitination; cells transfected with p53, MDM2, HIS-ubiquitin, exposed 6 h, read-out: IC50 (Mean ± SEM) In Vivo p53 Ubiquitination",0.22 ± 0.0043 µM
same,"fold more active than standard drug, in vivo p53 ubiquitination",p53 ubiquitination; vs diphenyl imidazole,8.6 fold
same,IC50,VEGFR-2,0.027 ± 0.0012 µM
same,IC50,"MCF-7 cells; Homo sapiens, MCF7, MTT assay, MCF-7 cell line, read-out: IC50 (Mean ± SEM) MCF-7",18.38 ± 0.13 µM
same,fold more toxic than the least active compound 7b towards MCF-7,"MCF-7 cells; ratio of IC50 values, 5a vs 7b",2.5 fold
